# Test system: PGE2 levels
# Assay: Rat Air-Pouch Model for Acute Inflammation (carrageenan challenge, exudate volume and PGE2 by ELISA)
# Assay type: in vivo, Sprague-Dawley rats
# Settings: for Volume (mL), collected exudate volume, mean / PGE2 (pg/mL) in exudate, mean: 0.01 mmol/kg oral gavage 2 h before intra-pouch 1% carrageenan, exudate collected 4 h after carrageenan; for Volume (mL), collected exudate volume, mean: 5 rats/group, vehicle mean 5.7; for PGE2 (pg/mL) in exudate, mean: ELISA, vehicle mean 4357.7; for reduction in exudate PGE2 release / reduction in collected exudate volume: 0.01 mmol/kg oral pretreatment, versus vehicle; for reduction in collected exudate volume: significant
# Experimental: A study of celecoxib release from Example Compound 5 is assessed by measurement of PGE2 levels, which are indicative of inflammatory response.
# Animals: Sprague-Dawley rats (Charles River Laboratories, R #3234, PO #738990, male, 160-180 g) were received, individually examined, and housed in cages of five rats each. The rats were ear notched for identification purposes.
# Compounds and dosing solutions: The vehicle was prepared by dissolving 40 g (2-hydroxypropyl)-β-cyclodextrin (HP-β-CD, Sigma, Cat. 332593, lot MKBJ5858V) in 160 mL sterile saline for injection, USP (Hospira, lot 26-801-FW) making a […] solution which was filter sterilized (0.2 μm, Nalgene, Cat. 151-4020, lot 1095610). A 1% carrageenan solution was prepared by dissolving […] (Fluka, Cat. 22049, lot 1318338) in hot 60 mL sterile saline for injection, USP. This solution was stored at 4-8° C. Test compounds were dissolved in DMSO (Fisher Scientific, Cat. D128-500, lot 874999) to make 75 mM stocks. 0.25 mL of compound DMSO stocks were mixed with 12.5 mL of HP-β-CD solution at 50° C. (maximum DMSO concentration was 2% of the final volume of vehicle). Final concentration of all test compounds was 1.5 mM and compounds were dosed within 2 hours of preparation at 0.01 mmol/kg ([…] of test compound per rat).
# Day 0—Air pouch initiation: The rats were anesthetized in a biological cabinet, the nape of the neck was cleansed with 70% isopropanol (Butler Schein Animal Health, Cat. 002498, lot 29EMS07104547) followed by 1% povidone-iodine solution (Ricca Chemical Co., Cat. 3955-16, lot 2205469). Twenty mL of sterile (0.22 μm, Millipore, Cat. SLGP033RS, lot R2KA55925, exp 08/2015) air was injected subcutaneously (SC) using a 23G×1½ inch needle fixed to a 20 mL syringe. The rats were returned to routine housing. No adverse reactions were observed.
# Day 3—Air pouch maintenance: The rats were anesthetized in a biological cabinet, the nape of the neck was cleansed with 70% isopropanol followed by 1% povidone-iodine solution. Ten mL of sterile air was injected SC using a 23G×1½ inch needle fixed to a 20 mL syringe. The rats were returned to routine housing in clean cages. No adverse reactions were observed.
# Day 6—Compound administration and carrageenan insult: At commencement of the study, each rat was weighed and sorted into treatment groups of 5 rats/group based upon average weight. Each rat was dosed orally via gavage at 6.809 mL/kg (1.6 mL/235 g) with their respective test material/vehicle. Two hours after test material/vehicle administration, the rats were injected with 1.0 mL of the room temperature 1% carrageenan saline solution into the air pouch. Four hours after carrageenan injection, the rats were anesthetized and 5 mL of the exudate buffer was injected into the air pouch. The pouch was gently massaged, the exudate immediately removed, and exudate volume recorded. The exudate was collected in a serum separator tube on an ice bath. The exudates were centrifuged (refrigerated) and an aliquot of the supernatant was stored in a labeled Eppendorf tube at −80° C.
# Termination of Study: Animals were euthanized via CO2 asphyxiation at the completion of the in-life portion of this study and carcasses were disposed of according to standard protocols.
# Data analysis: The exudate samples were thawed to room temperature and assayed by ELISA for PGE2 (R&D Systems, Cat. KGE004B, lot 307711). Statistical significance of treatments on mean exudate volumes are determined by comparison of means for treatment groups with vehicle group. Mean cytokine concentrations and standard deviations are determined for each group. Statistical significance of treatments on cytokine concentrations are determined for each compound group compared to vehicle group. Statistical significance (p-value) was calculated vs control groups by Student's t-Test.
SMILES,"Volume (mL), collected exudate volume, mean [mL]","PGE2 (pg/mL) in exudate, mean [pg/mL]",reduction in exudate PGE2 release [%],reduction in collected exudate volume [%]
"Cc1ccc(-c2cc(C(F)(F)F)nn2-c2ccc(S(=O)(=O)NC(=O)[C@@H](N)CCCNC(=N)N)cc2)cc1 [Example 5, (S)-2-Amino-5-guanidino-N-((4-(5-(p-tolyl)-3-(trifluoromethyl)-1H-pyrazol-1-yl)phenyl)sulfonyl)pentanamide]",4.3,896.0,80,24
"Cc1ccc(-c2cc(C(F)(F)F)nn2-c2ccc(S(N)(=O)=O)cc2)cc1 [celecoxib, 4-[5-(4-Methylphenyl)-3-(trifluoromethyl)-1H-pyrazol-1-yl]benzenesulfonamide]",4.6,907.1,80,19

# From US9044464B2, “No-releasing guanidine-coxib anti-cancer agents” (Euclises Pharmaceuticals, Inc., priority 2012, dated 2015)
